Assay results taken from US20230085307A1, “PYRIDAZINONE COMPOUND AND HERBICIDE” (NISSAN CHEMICAL CORPORATION, priority 2019, published 2023).

Tests used:
[1] = system: barnyard grass; assay: Test Example 3: herbicidal effect by foliage application, Wagner pot (Table 18, symbol H); assay type: in vivo, barnyard grass (Echinochloa crus-galli); settings: 320 g/ha
Method in brief: (§1)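 Plants were sown in alluvial soil held under 0.1–0.5 cm standing water and grown 14 days in a greenhouse at 25–30 °C. An emulsifiable formulation, water-diluted to the set dose, was then sprayed onto the foliage, and effects were scored three weeks later using previously defined criteria.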

[2] = system: Chinese sprangletop; assay: Test Example 3: herbicidal effect by foliage application, Wagner pot (Table 18, symbol D); assay type: in vivo, chinese sprangletop (Leptochloa chinensis); settings: 320 g/ha
Method in brief: as §1

[3] = system: rice flat sedge; assay: Test Example 3: herbicidal effect by foliage application, Wagner pot (Table 18, symbol E); assay type: in vivo, rice flat sedge (Cyperus iria); settings: 320 g/ha
Method in brief: as §1

[4] = system: southern crabgrass; assay: Test Example 4: herbicidal effect by soil treatment (Table 19, symbol F); assay type: in vivo, southern crabgrass (Digitaria ciliaris); settings: amount of applied herbicide 320 g/ha
Method in brief: (§2)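 Three weeks of greenhouse growth at 25° C. to 30° C. followed a uniform surface spray of water-diluted emulsion at a predetermined herbicide amount. Seeds had been sown beforehand under about 1.5 cm of sterilized diluvial soil. Grading followed criteria set out in an earlier test.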

[5] = system: green foxtail; assay: Test Example 4: herbicidal effect by soil treatment (Table 19, symbol G); assay type: in vivo, green foxtail (Setaria viridis); settings: amount of applied herbicide 320 g/ha
Method in brief: as §2

[6] = system: barnyard grass; assay: Test Example 4: herbicidal effect by soil treatment (Table 19, symbol H); assay type: in vivo, barnyard grass (Echinochloa crus-galli); settings: amount of applied herbicide 320 g/ha
Method in brief: as §2

[7] = system: wild oat; assay: Test Example 4: herbicidal effect by soil treatment (Table 19, symbol I); assay type: in vivo, wild oat (Avena fatua); settings: amount of applied herbicide 320 g/ha
Method in brief: as §2

[8] = system: blackgrass; assay: Test Example 4: herbicidal effect by soil treatment (Table 19, symbol J); assay type: in vivo, blackgrass (Alopecurus myosuroides); settings: amount of applied herbicide 320 g/ha
Method in brief: as §2

[9] = system: Italian ryegrass; assay: Test Example 4: herbicidal effect by soil treatment (Table 19, symbol K); assay type: in vivo, Italian ryegrass (Lolium multiflorum); settings: amount of applied herbicide 320 g/ha
Method in brief: as §2

[10] = system: windgrass; assay: Test Example 4: herbicidal effect by soil treatment (Table 19, symbol L); assay type: in vivo, windgrass (Apera spica-venti); settings: amount of applied herbicide 320 g/ha
Method in brief: as §2

[11] = system: velvetleaf; assay: Test Example 4: herbicidal effect by soil treatment (Table 19, symbol M); assay type: in vivo, velvetleaf (Abutilon theophrasti); settings: amount of applied herbicide 320 g/ha
Method in brief: as §2

[12] = system: redroot pigweed; assay: Test Example 4: herbicidal effect by soil treatment (Table 19, symbol N); assay type: in vivo, redroot pigweed (Amaranthus retroflexus); settings: amount of applied herbicide 320 g/ha
Method in brief: as §2

[13] = system: lambsquarters; assay: Test Example 4: herbicidal effect by soil treatment (Table 19, symbol O); assay type: in vivo, lambsquarters (Chenopodium album); settings: amount of applied herbicide 320 g/ha
Method in brief: as §2

[14] = system: chickweed; assay: Test Example 4: herbicidal effect by soil treatment (Table 19, symbol P); assay type: in vivo, common chickweed (Stellaria media); settings: amount of applied herbicide 320 g/ha
Method in brief: as §2

[15] = system: persian speedwell; assay: Test Example 4: herbicidal effect by soil treatment (Table 19, symbol R); assay type: in vivo, Persian speedwell (Veronica persica); settings: amount of applied herbicide 320 g/ha
Method in brief: as §2

[16] = system: southern crabgrass; assay: Test Example 5: herbicidal effect by foliage application, plastic box (Table 20, symbol F); assay type: in vivo, southern crabgrass (Digitaria ciliaris); settings: foliage application after 14-day growth, evaluated three weeks after application
Method in brief: (§3)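 Plants sown in sterilized diluvial soil and grown 14 days in a greenhouse at 25° C to 30° C, then sprayed on the foliage with the compound's emulsion diluted in water to a predetermined herbicide amount. Injury to weeds and crops scored three weeks after application on a visual rating scale.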

[17] = system: green foxtail; assay: Test Example 5: herbicidal effect by foliage application, plastic box (Table 20, symbol G); assay type: in vivo, green foxtail (Setaria viridis); settings: foliage application after 14-day growth, evaluated three weeks after application
Method in brief: as §3

[18] = system: barnyard grass; assay: Test Example 5: herbicidal effect by foliage application, plastic box (Table 20, symbol H); assay type: in vivo, barnyard grass (Echinochloa crus-galli); settings: foliage application after 14-day growth, evaluated three weeks after application
Method in brief: as §3

[19] = system: wild oat; assay: Test Example 5: herbicidal effect by foliage application, plastic box (Table 20, symbol I); assay type: in vivo, wild oat (Avena fatua); settings: foliage application after 14-day growth, evaluated three weeks after application
Method in brief: as §3

[20] = system: blackgrass; assay: Test Example 5: herbicidal effect by foliage application, plastic box (Table 20, symbol J); assay type: in vivo, blackgrass (Alopecurus myosuroides); settings: foliage application after 14-day growth, evaluated three weeks after application
Method in brief: as §3

[21] = system: Italian ryegrass; assay: Test Example 5: herbicidal effect by foliage application, plastic box (Table 20, symbol K); assay type: in vivo, Italian ryegrass (Lolium multiflorum); settings: foliage application after 14-day growth, evaluated three weeks after application
Method in brief: as §3

[22] = system: windgrass; assay: Test Example 5: herbicidal effect by foliage application, plastic box (Table 20, symbol L); assay type: in vivo, windgrass (Apera spica-venti); settings: foliage application after 14-day growth, evaluated three weeks after application
Method in brief: as §3

[23] = system: velvetleaf; assay: Test Example 5: herbicidal effect by foliage application, plastic box (Table 20, symbol M); assay type: in vivo, velvetleaf (Abutilon theophrasti); settings: foliage application after 14-day growth, evaluated three weeks after application
Method in brief: as §3

[24] = system: redroot pigweed; assay: Test Example 5: herbicidal effect by foliage application, plastic box (Table 20, symbol N); assay type: in vivo, redroot pigweed (Amaranthus retroflexus); settings: foliage application after 14-day growth, evaluated three weeks after application
Method in brief: as §3

[25] = system: lambsquarters; assay: Test Example 5: herbicidal effect by foliage application, plastic box (Table 20, symbol O); assay type: in vivo, lambsquarters (Chenopodium album); settings: foliage application after 14-day growth, evaluated three weeks after application
Method in brief: as §3

[26] = system: chickweed; assay: Test Example 5: herbicidal effect by foliage application, plastic box (Table 20, symbol P); assay type: in vivo, common chickweed (Stellaria media); settings: foliage application after 14-day growth, evaluated three weeks after application
Method in brief: as §3

[27] = system: persian speedwell; assay: Test Example 5: herbicidal effect by foliage application, plastic box (Table 20, symbol R); assay type: in vivo, Persian speedwell (Veronica persica); settings: foliage application after 14-day growth, evaluated three weeks after application
Method in brief: as §3

[28] = amount of applied herbicide 320 g/ha

Compound	herbicidal effect on barnyard grass (H) [1]	herbicidal effect on Chinese sprangletop (D) [2]	herbicidal effect on rice flat sedge (E) [3]	Herbicidal effect by soil treatment, F: southern crabgrass [4]	Herbicidal effect by soil treatment, G: green foxtail [5]	Herbicidal effect by soil treatment, H: barnyard grass [6]	Herbicidal effect by soil treatment, I: wild oat [7]	Herbicidal effect by soil treatment, J: blackgrass [8]	Herbicidal effect by soil treatment, K: Italian ryegrass [9]	Herbicidal effect by soil treatment, L: windgrass [10]	Herbicidal effect by soil treatment, M: velvetleaf [11]	Herbicidal effect by soil treatment, N: redroot pigweed [12]	Herbicidal effect by soil treatment, O: lambsquarters [13]	Herbicidal effect by soil treatment, P: chickweed [14]	Herbicidal effect by soil treatment, R: persian speedwell [15]	other results
CCCCOc1cccc(-c2sc3c(Cl)cccc3c2-c2c(O)c(C)nn(C)c2=O)c1 [4-068]	4 (Herbicidal rate of 70% or more and less than 90%)	3 (Herbicidal rate of 40% or more and less than 70%)	3 (Herbicidal rate of 40% or more and less than 70%)	0 (Herbicidal rate of 5% or less (almost no effect))	0 (Herbicidal rate of 5% or less (almost no effect))	0 (Herbicidal rate of 5% or less (almost no effect))	0 (Herbicidal rate of 5% or less (almost no effect))	0 (Herbicidal rate of 5% or less (almost no effect))	0 (Herbicidal rate of 5% or less (almost no effect))	0 (Herbicidal rate of 5% or less (almost no effect))	0 (Herbicidal rate of 5% or less (almost no effect))	3 (Herbicidal rate of 40% or more and less than 70%)	0 (Herbicidal rate of 5% or less (almost no effect))	0 (Herbicidal rate of 5% or less (almost no effect))	0 (Herbicidal rate of 5% or less (almost no effect))	herbicidal effect on F: southern crabgrass (evaluation grade 0-5) ([16]; 320 g/ha): 0 (Herbicidal rate of 5% or less (almost no effect)); herbicidal effect on G: green foxtail (evaluation grade 0-5) ([17]; 320 g/ha): 0 (Herbicidal rate of 5% or less (almost no effect)); herbicidal effect on H: barnyard grass (evaluation grade 0-5) ([18]; 320 g/ha): 0 (Herbicidal rate of 5% or less (almost no effect)); herbicidal effect on I: wild oat (evaluation grade 0-5) ([19]; 320 g/ha): 0 (Herbicidal rate of 5% or less (almost no effect)); herbicidal effect on J: blackgrass (evaluation grade 0-5) ([20]; 320 g/ha): 0 (Herbicidal rate of 5% or less (almost no effect)); herbicidal effect on K: Italian ryegrass (evaluation grade 0-5) ([21]; 320 g/ha): 0 (Herbicidal rate of 5% or less (almost no effect)); herbicidal effect on L: windgrass (evaluation grade 0-5) ([22]; 320 g/ha): 0 (Herbicidal rate of 5% or less (almost no effect)); herbicidal effect on M: velvetleaf (evaluation grade 0-5) ([23]; 320 g/ha): 0 (Herbicidal rate of 5% or less (almost no effect)); herbicidal effect on N: redroot pigweed (evaluation grade 0-5) ([24]; 320 g/ha): 2 (Herbicidal rate of 20% or more and less than 40%); herbicidal effect on O: lambsquarters (evaluation grade 0-5) ([25]; 320 g/ha): 0 (Herbicidal rate of 5% or less (almost no effect)); herbicidal effect on P: chickweed (evaluation grade 0-5) ([26]; 320 g/ha): 5 (Herbicidal rate of 90% or more (almost completely withered)); herbicidal effect on R: persian speedwell (evaluation grade 0-5) ([27]; 320 g/ha): 5 (Herbicidal rate of 90% or more (almost completely withered))
Cc1nn(C)c(=O)c(-c2c(-c3ccc(OC(F)(F)F)cc3)sc3c(Cl)cccc23)c1O [4-078]	3 (Herbicidal rate of 40% or more and less than 70%)	2 (Herbicidal rate of 20% or more and less than 40%)	3 (Herbicidal rate of 40% or more and less than 70%)	0 (Herbicidal rate of 5% or less (almost no effect))	0 (Herbicidal rate of 5% or less (almost no effect))	0 (Herbicidal rate of 5% or less (almost no effect))	0 (Herbicidal rate of 5% or less (almost no effect))	0 (Herbicidal rate of 5% or less (almost no effect))	0 (Herbicidal rate of 5% or less (almost no effect))	0 (Herbicidal rate of 5% or less (almost no effect))	0 (Herbicidal rate of 5% or less (almost no effect))	2 (Herbicidal rate of 20% or more and less than 40%)	0 (Herbicidal rate of 5% or less (almost no effect))	3 (Herbicidal rate of 40% or more and less than 70%)	4 (Herbicidal rate of 70% or more and less than 90%)	Herbicidal effect by foliage application, F: southern crabgrass [16, 28]: 0 (Herbicidal rate of 5% or less (almost no effect)); Herbicidal effect by foliage application, G: green foxtail [17, 28]: 0 (Herbicidal rate of 5% or less (almost no effect)); Herbicidal effect by foliage application, H: barnyard grass [18, 28]: 0 (Herbicidal rate of 5% or less (almost no effect)); Herbicidal effect by foliage application, I: wild oat [19, 28]: 0 (Herbicidal rate of 5% or less (almost no effect)); Herbicidal effect by foliage application, J: blackgrass [20, 28]: 0 (Herbicidal rate of 5% or less (almost no effect)); Herbicidal effect by foliage application, K: Italian ryegrass [21, 28]: 0 (Herbicidal rate of 5% or less (almost no effect)); Herbicidal effect by foliage application, L: windgrass [22, 28]: 5 (Herbicidal rate of 90% or more (almost completely withered)); Herbicidal effect by foliage application, M: velvetleaf [23, 28]: 3 (Herbicidal rate of 40% or more and less than 70%); Herbicidal effect by foliage application, N: redroot pigweed [24, 28]: 5 (Herbicidal rate of 90% or more (almost completely withered)); Herbicidal effect by foliage application, O: lambsquarters [25, 28]: 3 (Herbicidal rate of 40% or more and less than 70%); Herbicidal effect by foliage application, P: chickweed [26, 28]: 5 (Herbicidal rate of 90% or more (almost completely withered)); Herbicidal effect by foliage application, R: persian speedwell [27, 28]: 5 (Herbicidal rate of 90% or more (almost completely withered))
